Measurements: US12281122B1, “PI3K inhibitors” (Cogent Biosciences, Inc., priority 2023, dated 2025)

Legend:
[1] = system: SKBR3 (PI3Kα-Wild Type) cell line; experiment: HTRF phospho-AKT(S473) cell assay in SKBR3 cells; type: cell-based, human; conditions: Homo sapiens, SK-BR-3; HTRF phospho-AKT(S473), SKBR3 (PI3Kα-Wild Type) cells, 2 hours compound incubation, PDGF-BB stimulated
Outline: (§1)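 HTRF read-out of phospho-AKT(S473) in lysates gave IC50 values after 2 h compound exposure at 37° C. Dose series was 12 points at 1:3, topping at 5 μM for T47D and 10 μM for SKBR3. Only SKBR3 received 70 ng/ml PDGF-BB during the last 15 minutes.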

[2] = system: T47D (PI3Kα-H1047R) cell line; experiment: HTRF phospho-AKT(S473) cell assay in T47D cells; type: cell-based, human; conditions: Homo sapiens; HTRF phospho-AKT(S473), T47D (PI3Kα-H1047R) cells, 2 hours compound incubation
Outline: as §1

Structure (SMILES) | IC50 [1] | IC50 [2]
Cc1cc([C@@H](C)Nc2ccc(Cl)nc2C(=O)NS(C)(=O)=O)c2nc(N3Cc4cnc(C)cc4C3)n(C)c(=O)c2c1 [Compound 516, (R)-6-chloro-3-((1-(3,6-dimethyl-2-(6-methyl-1,3-dihydro-2H-pyrrolo[3,4-c]pyridin-2-yl)-4-oxo-3,4-dihydroquinazolin-8-yl)ethyl)amino)-N-(methylsulfonyl) picolinamide] | 1000 to 5000 nM | < 250 nM
COc1cc([C@H]2[C@@H]3CN(c4nc5c([C@@H](C)Nc6ccc(Cl)nc6C(=O)NS(C)(=O)=O)cc(C)cc5c(=O)n4C)C[C@@H]32)n(C)n1 [Compound 519, 6-chloro-3-(((R)-1-(2-((1R,5S,6R)-6-(3-methoxy-1-methyl-1H-pyrazol-5-yl)-3-azabicyclo[3.1.0]hexan-3-yl)-3,6-dimethyl-4-oxo-3,4-dihydroquinazolin-8-yl)ethyl)amino)-N-(methylsulfonyl) picolinamide] | 1000 to 5000 nM | < 250 nM
Cc1cc([C@@H](C)Nc2ccc(Cl)nc2C(=O)NS(C)(=O)=O)c2nc(N3C[C@@H]4[C@H](C3)[C@H]4c3cc4n(n3)CCO4)n(C)c(=O)c2c1 [Compound 520, 6-chloro-3-(((R)-1-(2-((1R,5S,6R)-6-(2,3-dihydropyrazolo[5,1-b]oxazol-6-yl)-3-azabicyclo[3.1.0]hexan-3-yl)-3,6-dimethyl-4-oxo-3,4-dihydroquinazolin-8-yl)ethyl)amino)-N-(methylsulfonyl) picolinamide] | 1000 to 5000 nM | < 250 nM
Cc1cc([C@@H](C)Nc2ccc(Cl)nc2C(=O)NS(C)(=O)=O)c2nc(N3CCC(c4cnc(C)o4)CC3)n(C)c(=O)c2c1 [Compound 521, (R)-6-chloro-3-((1-(3,6-dimethyl-2-(4-(2-methyloxazol-5-yl)piperidin-1-yl)-4-oxo-3,4-dihydroquinazolin-8-yl)ethyl)amino)-N-(methylsulfonyl) picolinamide] | 1000 to 5000 nM | < 250 nM
Cc1cc([C@@H](C)Nc2ccc(Cl)nc2C(=O)NS(C)(=O)=O)c2nc(N3CCC(c4nc(C)nn4C)CC3)n(C)c(=O)c2c1 [Compound 523, (R)-6-chloro-3-((1-(2-(4-(1,3-dimethyl-1H-1,2,4-triazol-5-yl)piperidin-1-yl)-3,6-dimethyl-4-oxo-3,4-dihydroquinazolin-8-yl)ethyl)amino)-N-(methylsulfonyl) picolinamide] | ≥ 5000 nM | 250 to 500 nM
CCn1c(N2CCC(n3cc(C)cn3)CC2)nc2c([C@@H](C)Nc3ccc(Cl)nc3C(=O)NS(C)(=O)=O)cc(C)cc2c1=O [Compound 526, (R)-6-chloro-3-((1-(3-ethyl-6-methyl-2-(4-(4-methyl-1H-pyrazol-1-yl)piperidin-1-yl)-4-oxo-3,4-dihydroquinazolin-8-yl)ethyl)amino)-N-(methylsulfonyl) picolinamide] | 1000 to 5000 nM | < 250 nM
Cc1cc([C@@H](C)Nc2ccc(Cl)nc2C(=O)NS(C)(=O)=O)c2nc(N3CC[C@H](Oc4ccc(C)nn4)C3)n(C)c(=O)c2c1 [Compound 527, 6-chloro-3-(((R)-1-(3,6-dimethyl-2-((S)-3-((6-methylpyridazin-3-yl)oxy)pyrrolidin-1-yl)-4-oxo-3,4-dihydroquinazolin-8-yl)ethyl)amino)-N-(methylsulfonyl) picolinamide] | 1000 to 5000 nM | < 250 nM

Further lines, results first:

IC50 [1] | IC50 [2] | Structure (SMILES)
1000 to 5000 nM | 250 to 500 nM | Cc1cc([C@@H](C)Nc2ccc(Cl)nc2C(=O)NS(C)(=O)=O)c2nc(N3Cc4cncnc4C3)n(C)c(=O)c2c1 [Compound 517, (R)-6-chloro-3-((1-(2-(5,7-dihydro-6H-pyrrolo [3,4-d]pyrimidin-6-yl)-3,6-dimethyl-4-oxo-3,4-dihydroquinazolin-8-yl)ethyl)amino)-N-(methylsulfonyl) picolinamide]
1000 to 5000 nM | < 250 nM | Cc1cc([C@@H](C)Nc2ccc(Cl)nc2C(=O)NS(C)(=O)=O)c2nc(N3C[C@@H]4[C@H](C3)[C@H]4c3cnc(C)o3)n(C)c(=O)c2c1 [Compound 518, 6-chloro-3-(((R)-1-(3,6-dimethyl-2-((1R,5S,6R)-6-(2-methyloxazol-5-yl)-3-azabicyclo[3.1.0]hexan-3-yl)-4-oxo-3,4-dihydroquinazolin-8-yl)ethyl)amino)-N-(methylsulfonyl) picolinamide]
1000 to 5000 nM | < 250 nM | Cc1cc([C@@H](C)Nc2ccc(Cl)nc2C(=O)NS(C)(=O)=O)c2nc(N3C[C@@H]4[C@H](C3)[C@H]4c3cnc(C(F)F)nc3)n(C)c(=O)c2c1 [Compound 522, 6-chloro-3-(((R)-1-(2-((1R,5S,6S)-6-(2-(difluoromethyl)pyrimidin-5-yl)-3-azabicyclo[3.1.0]hexan-3-yl)-3,6-dimethyl-4-oxo-3,4-dihydroquinazolin-8-yl)ethyl)amino)-N-(methylsulfonyl) picolinamide]
1000 to 5000 nM | < 250 nM | Cc1cc([C@@H](C)Nc2ccc(Cl)nc2C(=O)NS(C)(=O)=O)c2nc(N3C[C@@H]4[C@H](C3)[C@H]4c3cc(C4CC4)[nH]n3)n(C)c(=O)c2c1 [Compound 524, 6-chloro-3-(((R)-1-(2-((1R,5S,6R)-6-(5-cyclopropyl-1H-pyrazol-3-yl)-3-azabicyclo[3.1.0]hexan-3-yl)-3,6-dimethyl-4-oxo-3,4-dihydroquinazolin-8-yl)ethyl)amino)-N-(methylsulfonyl) picolinamide]
≥ 5000 nM | < 250 nM | Cc1cc([C@@H](C)Nc2ccc(Cl)nc2C(=O)NS(C)(=O)=O)c2nc(N3CCC(c4ncc(C)nc4C)CC3)n(C)c(=O)c2c1 [Compound 525, (R)-6-chloro-3-((1-(2-(4-(3,5-dimethylpyrazin-2-yl)piperidin-1-yl)-3,6-dimethyl-4-oxo-3,4-dihydroquinazolin-8-yl)ethyl)amino)-N-(methylsulfonyl) picolinamide]
1000 to 5000 nM | < 250 nM | Cc1cc([C@@H](C)Nc2ccc(Cl)nc2C(=O)NS(C)(=O)=O)c2nc(N3C[C@@H]4[C@H](C3)[C@H]4c3cn(C(C)C)nn3)n(C)c(=O)c2c1 [Compound 528, 6-chloro-3-(((R)-1-(2-((1R,5S,6R)-6-(1-isopropyl-1H-1,2,3-triazol-4-yl)-3-azabicyclo[3.1.0]hexan-3-yl)-3,6-dimethyl-4-oxo-3,4-dihydroquinazolin-8-yl)ethyl)amino)-N-(methylsulfonyl) picolinamide]
1000 to 5000 nM | < 250 nM | Cc1cc([C@@H](C)Nc2ccc(Cl)nc2C(=O)NS(C)(=O)=O)c2nc(N3CCN(c4cncc(C)n4)CC3)n(C)c(=O)c2c1 [Compound 529, (R)-6-chloro-3-((1-(3,6-dimethyl-2-(4-(6-methylpyrazin-2-yl)piperazin-1-yl)-4-oxo-3,4-dihydroquinazolin-8-yl)ethyl)amino)-N-(methylsulfonyl) picolinamide]
≥ 5000 nM | 250 to 500 nM | Cc1cc([C@@H](C)Nc2ccc(Cl)nc2C(=O)NS(C)(=O)=O)c2nc(N3CCN(c4ncc(Cl)cn4)CC3)n(C)c(=O)c2c1 [Compound 530, (R)-6-chloro-3-((1-(2-(4-(5-chloropyrimidin-2-yl)piperazin-1-yl)-3,6-dimethyl-4-oxo-3,4-dihydroquinazolin-8-yl)ethyl)amino)-N-(methylsulfonyl) picolinamide]
